Values after ≈ are worked out from the molar mass of the structure shown. Where two headings read alike, the source gives them in different places.
Tests used:
[1] = test system: E. coli HB4 ΔompC/F (OXA-48); test: microbe, parasite or virus in culture; type: cell-based, Escherichia coli
In short: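 MICs determined in triplicate, interpreted against EUCAST 13.0 breakpoints, on E. coli TG1 and low-permeability HB4 (ΔompC/F) transformants producing OXA-48 alone or with CTX-M-14. Inhibitors tested alone and at 4 mg/L combined with ertapenem or ceftazidime as reporter substrates.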

[2] = test system: E. coli TG1 (OXA-48); test: microbe, parasite or virus in culture; type: cell-based, Escherichia coli
Method: (§1) The MICs of each of the individual compounds (antibiotics or inhibitors) were also determined. The MICs were determined for the E. coli isogenic expressing OXA-48 (and both OXA-48 and CTX-M-14) to assess their activity against the carbapenemase; MICs were also determined for the 18 Enterobacterales clinical isolates in order to evaluate the new inhibitors against also their resistance concomitant mechanisms. The MICs were determined in triplicate experiments, and the EUCAST 13.0 clinical breakpoints were followed (http://www.eucast.org/clinical_breakpoints).
(§2) For comparative evaluation of the activity of each inhibitor alone against the carbapenemase OXA-48, all inhibitors (at 4 mg/L) were tested in the presence of a carbapenem (ertapenem, adequate substrate) and a cephalosporin (ceftazidime, poor substrate) as reporter substrates. This prevented any possible masking effect produced by the different partner antibiotics. These assays were also performed with isogenic transformants and clinical isolates.

[3] = molecular target: T1, OXA-48 (Klebsiella pneumoniae, UniProt Q6XEC0); test: Steady-state inhibition constant (Ki app), nitrocefin reporter; type: biochemical; design: These primers amplified the blaOXA-48 gene without the signal peptide; GST (glutathione S-transferase, pGEX-6P-1) (N, cleaved yes); made in house; host or cells: E. coli BL21; settings: nitrocefin 300 µM reporter, 25 °C, pH 7.4
T1 sequence (Q6XEC0 23-265 limits assumed): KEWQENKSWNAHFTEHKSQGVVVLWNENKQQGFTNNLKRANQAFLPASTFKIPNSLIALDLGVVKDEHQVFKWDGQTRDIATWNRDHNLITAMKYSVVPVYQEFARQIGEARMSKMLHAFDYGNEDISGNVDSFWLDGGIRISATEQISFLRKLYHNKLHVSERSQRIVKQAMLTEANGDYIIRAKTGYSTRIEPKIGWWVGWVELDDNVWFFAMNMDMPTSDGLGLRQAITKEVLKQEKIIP
Method: (§3) OXA-48 was cloned, produced, and purified following the procedures described in the supplemental methods. The steady-state inhibition constants (Ki app) and kinetics of inhibition (such as k2/K , koff, Kd, and tn) were determined following previously established protocols, are also outlined in the supplemental methods.
(§4) Ki app serves as an equilibrium constant, calculable from […] conditions and indicates the formation of the enzyme acyl E-S complex. […] Plotting the inverse initial velocities (1/V0) against inhibitory concentrations ([I]) facilitated fitting the data to a linear equation. The intersection, divided by the slope of the line, was defined as the observed Ki app.
Ki app (corrected)= Ki app (observed) / [ 1+ ([S]/KmNFC)] (2)

[4] = test system: OXA-48-producing Enterobacterales clinical isolates; test: MIC summary over clinical isolates; type: cell-based
Method: The efficacy of these new BLIs was also evaluated against 18 genetically diverse WGS-characterized collection of OXA-48-positive Enterobacterales recovered as part of the Carbapenem-resistant Enterobacterales Genome Database Project (https://genomes.cnag.cat/incredble) listed in Table S2 ([13]). Combinations of clinical isolates (five pairs of Klebsiella pneumoniae, two pairs of Enterobacter cloacae, and two pairs of E. coli) were chosen for analysis: (i) nine strains carrying ESBLs; and (ii) nine strains (genetically closer available strains) without ESBLs.
as §1, §2

[5] = molecular target: T1, OXA-48; test: Partition ratio / turnover number (tn), I/E for >90% inhibition; type: biochemical; design: These primers amplified the blaOXA-48 gene without the signal peptide; GST (glutathione S-transferase, pGEX-6P-1) (N, cleaved yes); made in house; host or cells: E. coli BL21; settings: 15 min incubation, 500 nM enzyme
Method: as §3
The evaluation involved exposure to increasing concentrations of inhibitors plus 500 nM of enzyme, at different molar I/E ratios.

[6] = test system: E. coli TG1 and HB4 transformants; test: MIC summary over E. coli transformants; type: cell-based, Escherichia coli; settings: for effect of ertapenem/BLI on bacterial growth / decrease of ertapenem MIC with BLI: OXA-48-producing E. coli hosts, BLI 4 mg/L; for MICs of inhibitor alone (range over strains): TG1 and HB4 E. coli
Description: The E. coli HB4 strain was used to gain a more complete perspective, by evaluating the involvement in resistance of a low permeability background with the carbapenemase OXA-48, as well as coproduction of an ESBL and the carbapenemase; thus, the ESBL CTX-M-14 and OXA-48 were cloned together and separately into E. coli HB4. The characteristics of these strains and transformants are summarized in Table S1, and the cloning procedures are outlined in the supplemental methods.
as §1, §2

[7] = molecular target: T1, OXA-48; test: Dissociation rate (koff) by jump dilution; t1/2 and Kd; type: biochemical; design: These primers amplified the blaOXA-48 gene without the signal peptide; GST (glutathione S-transferase, pGEX-6P-1) (N, cleaved yes); made in house; host or cells: E. coli BL21; settings: for Kd: koff/kon; for residence time: read-out: t1/2 (residence time)
Method: as §3
The dissociation rate constant (koff) was determined using a “jump dilution” method in which OXA-48 enzyme activity was monitored over time as the BLI dissociates. […] Subsequently, the reaction mixture was diluted 10,000-fold dilution in the reaction buffer. […] Absorbance was recorded at 60-s intervals over a 2-h period at RT. The resulting reaction progress curve was fitted to equation 4, which includes the exponential function (6). […] From the fit, GraphPad Prism software, (MA, USA) also calculates the dissociation half-time (t1/2), in min.
koff was obtained directly from the dissociation experiment and kon was previously calculated, thus finally Kd was calculated as the fraction between koff and kon.
P= Vs x t + (V0-Vs) x [1– exp ^(-k^off x ^t)] / koff (4)

[8] = molecular target: T1, OXA-48; test: Inhibition efficiency / onset of acylation (k2/K), nitrocefin reporter; type: biochemical; design: These primers amplified the blaOXA-48 gene without the signal peptide; GST (glutathione S-transferase, pGEX-6P-1) (N, cleaved yes); made in house; host or cells: E. coli BL21; settings: for k2/K: nitrocefin reporter; for kinact/KI: pH 7.4, read-out: k2/K, nitrocefin reporter
Method: as §3, §4
k2/K = k2/kobs × [([S]/Km NCF) + 1] (3)

[9] = molecular target: T1, OXA-48; design: These primers amplified the blaOXA-48 gene without the signal peptide; GST (glutathione S-transferase, pGEX-6P-1) (N, cleaved yes); made in house; host or cells: E. coli BL21; method as in earlier work; settings: ref 5 Hecker et al.; cited from earlier work

CC(C)(O/N=C(\C(=O)N[C@@H]1C(=O)N2C(C(=O)[O-])=C(C[n+]3ccccc3)CS[C@H]12)c1csc(N)n1)C(=O)O [CAZ, ceftazidime]
MIC ([1]; E. coli HB4 ΔompC/F (OXA-48), ceftazidime alone or with BLI at 4 mg/L): 1 µg/mL (≈ 1.83 µM) | MIC ([1]; Escherichia coli): 1 µg/mL (≈ 1.83 µM) | MIC ([2]; E. coli TG1 (OXA-48), ceftazidime alone or with BLI at 4 mg/L): 0.25 µg/mL (≈ 0.457 µM) | MIC ([2]; Escherichia coli): 0.25 µg/mL (≈ 0.457 µM)

CC1=C[C@@H]2CN(C(=O)N2OS(=O)(=O)O)[C@@H]1C(N)=O [Durlobactam, durlobactam]
MIC ([1]; Escherichia coli): 1 µg/mL (≈ 3.61 µM) | Ki [3]: 103 ± 24 nM | MIC of inhibitor alone (range over isolates) ([4]; 18 clinical isolates): 0.25 to 4 µg/mL | MIC ([2]; Escherichia coli): 0.12 µg/mL (≈ 0.433 µM) | tn (partition ratio, I:E) [5]: 1 | effect of ertapenem/BLI on bacterial growth [6]: totally inhibited bacterial growth | MICs of inhibitor alone (range over strains) [6]: 0.12 to 2 mg/L | koff ([7]; jump dilution, read-out: koff): 9.5e-06 s⁻¹ | Kd [7]: 0.07 ± 0.01 nM | residence time [7]: 1220 ± 213 min | k2/K [8]: 142000 ± 38000 M⁻¹ s⁻¹ | kinact/KI [8]: 140000 M⁻¹ s⁻¹

NCCONC(=O)[C@@H]1CC[C@@H]2CN1C(=O)N2OS(=O)(=O)O [Nacubactam, nacubactam]
MIC ([1]; Escherichia coli): 2 µg/mL (≈ 6.17 µM) | Ki [3]: > 800000 nM | decrease of meropenem MIC by BLI ([4]; clinical isolates): 0–32 fold | MIC ([2]; Escherichia coli): 2 µg/mL (≈ 6.17 µM) | tn (partition ratio, I:E) [5]: 70 | effect of ertapenem/BLI on bacterial growth [6]: totally inhibited bacterial growth | MICs of inhibitor alone (range over strains) [6]: 0.12 to 2 mg/L | koff ([7]; jump dilution, read-out: koff): 0.0002 s⁻¹ | Kd [7]: 41000 nM | residence time [7]: 57.7 ± 7.5 min | kinact/KI [8]: 4.88 ± 2.11 M⁻¹ s⁻¹

NCCN[C@H]1CC[C@H](CC(=O)N[C@H]2Cc3cccc(C(=O)O)c3OB2O)CC1 [Taniborbactam, taniborbactam]
MIC ([1]; Escherichia coli): ≥ 128 µg/mL | Ki [3]: 75 ± 15 nM | reduction of cefepime MICs by BLI ([4]; clinical isolates): 2–512 fold | MIC ([2]; Escherichia coli): ≥ 128 µg/mL | tn (partition ratio, I:E) [5]: 200 | decrease of ertapenem MIC with BLI [6]: 8–256 fold | koff ([7]; jump dilution, read-out: koff): 0.00023 s⁻¹ | residence time [7]: 50.2 ± 8.2 min

O=C(O)C[C@@H]1CC[C@H](NC(=O)Cc2cccs2)B(O)O1 [Vaborbactam, vaborbactam]
MIC ([1]; Escherichia coli): ≥ 128 µg/mL | Ki [3]: 43600 nM | MIC ([2]; Escherichia coli): ≥ 128 µg/mL | tn (partition ratio, I:E) [5]: >3,000 | koff [7]: 2.6 × 10^−4 ± .5 10^−4 s^−1 | residence time [7]: 44.4 ± 1.6 min

O=C(O)c1c(F)ccc2c1OB(O)[C@@H]1C[C@H]21 [Xeruborbactam, xeruborbactam]
MIC ([1]; Escherichia coli): 16 µg/mL (≈ 72.1 µM) | higher inhibitory activity (Ki) for OXA-48 than avibactam [9]: 96 fold | higher inhibitory activity (Ki) for OXA-48 than vaborbactam [9]: 50,000 fold | Ki [3]: 18 ± 2 nM | MIC ([2]; Escherichia coli): 32 µg/mL (≈ 144 µM) | tn (partition ratio, I:E) [5]: 1 | decrease of ertapenem MIC with BLI [6]: 8–256 fold | koff ([7]; jump dilution, read-out: koff): 0.0002 s⁻¹ | Kd [7]: 0.63 nM | residence time [7]: 57.7 ± 9.6 min | k2/K [8]: 310000 M⁻¹ s⁻¹ | kinact/KI [8]: 313000 M⁻¹ s⁻¹

From PMC11823609, “Advancements in the fight against globally distributed OXA-48 carbapenemase: evaluating the new generation of carbapenemase inhibitors” (Antimicrobial Agents and Chemotherapy, 2025)
